One assay concerns the target T1, GPR6 receptor (Homo sapiens, UniProt P46095).
T1 construct: expressed in transfected cells
Kind of assay: Inhibition of cAMP Activity of GPR6 In Vitro Assay (CHO-K1 cells, HTRF cAMP). The class given is cell-based. The note with it: compounds of Compound Table 1; inhibition of constitutive cAMP activity of GPR6 expressed in CHO-K1 cells; approximate IC50; read-out: IC50. Summed up:
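CHO-K1 cells with doxycycline-induced (1 μg/ml, 20 h) GPR6 treated with compounds 45 min at 37 °C in Ringer's buffer (pH 7.4) with 0.5% fatty acid free BSA. Constitutive cAMP measured by Lance HTRF Ultra cAMP; IC50 from four-parameter logistic fit.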
A general note: TR-FRET usually uses a lanthanide donor and a delayed reading to cut background.

Assay [1] deals with haloperidol-induced catalepsy. Briefly: Haloperidol-Induced Catalepsy, in vivo rodent Parkinson's disease model (mice). The note with it: mouse; for % reversal 30 min: 30 min after dosing with haloperidol; for % reversal 120 min: 120 min after dosing with haloperidol. An excerpt:
(§1) Haloperidol-Induced Catalepsy—In Vivo Rodent Parkinson's Disease Model
The motor symptoms of Parkinson's disease include akinesia, bradykinesia, rigidity, tremor and postural abnormalities and are associated with the loss of nigral dopaminergic cells and a decline in striatal dopamine levels. Administration of haloperidol to rodents leads to a transient parkinsonian-like state that is reversed by the administration of L-Dopa (Duty, S.; Jenner, P. Br. J. Pharmacol. (2011), 164, 1357-1391) and other drugs that have been clinically validated for the treatment of Parkinson's disease. Haloperidol antagonizes dopamine D2 and, to a lesser extent, D1 receptors in medium spiny neurons that comprise the indirect and direct pathways of the motor circuit respectively. The resultant block of striatal dopamine transmission results in abnormal downstream firing within the basal ganglia circuits that is manifest as symptoms of muscle rigidity and catalepsy. Catalepsy has been postulated to reflect the clinical features of Parkinson's disease, whereby patients experience an inability of to initiate movements.
Male Sprague-Dawley rats (Charles River, Calco, Italy) weighing 175-200 g are used. Alternatively, male C57Bl6 mice weighing 25-35 g were used. The cataleptic state was induced by the subcutaneous administration of the dopamine receptor antagonist haloperidol (0.3 mg/kg, sc), 90 min before testing the animals on the vertical grid test. For this test, the rats or mice were placed on the wire mesh cover of a 25 cm×43 cm plexiglass cage placed at an angle of about 70 degrees with the bench table. The subject was placed on the grid with all four legs abducted and extended (“frog posture”). The use of such an unnatural posture is essential for the specificity of this test for catalepsy. The time span from placement of the paws until the first complete removal of one paw (descent latency) was measured maximally for 120 sec for rats. For mice, the front paws of a mouse was placed on a horizontal metal bar raised 2″ above a Plexiglas platform and time was recorded for up to 30 seconds per trial. The test ended when the animal's front paws returned to the platform or after 30 seconds. The test was repeated three times and the average of the three trials was reported as the intensity index of catalepsy.
Catalepsy was measured 30 min, 120 min, and/or 240 min after dosing the subjects a 0.3 mg/kg i.p. dose of haloperidol along with the GPR6 modulator test compound. Test compound plasma and brain levels were determined by collected tissue samples at the end of the experiment, which was either at the 120 or 240 min time point. A representative number of compounds of the invention were administered in a dose range from 0.1 to 100 mg/kg i.p, sc or po in conjunction with haloperidol. The A2a antagonist KW6002 (istradefylline) was dosed at 0.6 mg/kg i.p. as a positive control. The compounds of the invention produced reversal of haloperidol-induced catalepsy. The results of a representative no. of compounds of this invention in this assay are disclosed in the table below.

Assay [2] deals with haloperidol-induced catalepsy. Kind of assay: Haloperidol-Induced Catalepsy, in vivo rodent Parkinson's disease model (rats). To be noted: rat, 10 mpk sc.
Source text: as §1
The motor symptoms of Parkinson's disease include akinesia, bradykinesia, rigidity, tremor and postural abnormalities and are associated with the loss of nigral dopaminergic cells and a decline in striatal dopamine levels. Administration of haloperidol to rodents leads to a transient parkinsonian-like state that is reversed by the administration of L-Dopa (Duty, S.; Jenner, P. Br. J. Pharmacol. (2011), 164, 1357-1391) and other drugs that have been clinically validated for the treatment of Parkinson's disease. […]
Male Sprague-Dawley rats (Charles River, Calco, Italy) weighing 175-200 g are used. […] The time span from placement of the paws until the first complete removal of one paw (descent latency) was measured maximally for 120 sec for rats. For mice, the front paws of a mouse was placed on a horizontal metal bar raised 2″ above a Plexiglas platform and time was recorded for up to 30 seconds per trial. […]
Catalepsy was measured 30 min, 120 min, and/or 240 min after dosing the subjects a 0.3 mg/kg i.p. dose of haloperidol along with the GPR6 modulator test compound. Test compound plasma and brain levels were determined by collected tissue samples at the end of the experiment, which was either at the 120 or 240 min time point. […]

Counter-ions that a name gives are not always drawn.

The values that follow come from US9770452B2, “Quinoxaline derivatives as GPR6 modulators” (Takeda Pharmaceutical Company Limited, priority 2012, dated 2017).

T1 sequence (P46095 whole entry): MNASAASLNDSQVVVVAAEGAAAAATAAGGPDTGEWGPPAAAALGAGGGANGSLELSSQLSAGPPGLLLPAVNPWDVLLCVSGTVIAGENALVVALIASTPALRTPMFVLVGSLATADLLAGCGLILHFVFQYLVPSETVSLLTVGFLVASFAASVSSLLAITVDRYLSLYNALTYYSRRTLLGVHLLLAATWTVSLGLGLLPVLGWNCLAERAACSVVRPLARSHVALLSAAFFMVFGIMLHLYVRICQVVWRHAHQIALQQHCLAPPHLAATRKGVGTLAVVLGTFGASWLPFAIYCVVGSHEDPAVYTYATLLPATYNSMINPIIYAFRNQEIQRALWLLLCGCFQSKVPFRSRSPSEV

The term IC50 denotes the midpoint of a concentration-inhibition curve. Take `Clc1cccc(CN2CCN(c3nc4ccccc4nc3Nc3cccnc3)CC2)c1.O=C(O)C(F)(F)F` [Cpd 53, 3-(4-(3-chlorobenzyl)piperazin-1-yl)-N-(pyridin-3-yl)quinoxalin-2-amine, 2,2,2-trifluoroacetic acid salt]: the IC50 on GPR6 receptor turned out to be 1200 nM. In addition, in assay [1] (30 mpk ip), the “% reversal 30 min” value was found to be 13.6% and the “% reversal 120 min” value is recorded as 15.4%.

Take “3-(4-(2,4-difluorobenzyl)piperidin-1-yl)-2-(pyridin-3-ylamino)quinoxaline-6-carbonitrile, 2,2,2-trifluoroacetic acid salt [Cpd 415]”: on GPR6 receptor, the 50% inhibitory concentration (IC50) came to 64 nM. The “% reversal 30 min” value in assay [2] (30 min after dosing with haloperidol) was determined as 36.9%. Moreover, the “% reversal 120 min” value in assay [2] (120 min after dosing with haloperidol) was 25.1%.

Turning to `N#Cc1ccc2nc(NC3CC3)c(N3CCN(Cc4cc(Cl)ccc4Cl)CC3)nc2c1` [Cpd 59, 2-(cyclopropylamino)-3-(4-(2,5-dichlorobenzyl)piperazin-1-yl) quinoxaline-6-carbonitrile], the IC50 on GPR6 receptor came out at 250 nM. Moreover, the “% reversal 30 min” value was 42% in assay [1] (10 mpk ip) and 27.4% in assay [1] (30 mpk ip). The “% reversal 120 min” value in assay [1] (10 mpk ip) turned out to be 18.8%; in assay [1] (30 mpk ip) it was 15.7%.

With `Clc1ccc(Cl)c(CN2CCN(c3nc4ccccc4nc3NC3CC3)CC2)c1.O=C(O)C(F)(F)F` [Cpd 33, N-cyclopropyl-3-(4-(2,5-dichlorobenzyl)piperazin-1-yl)quinoxalin-2-amine, 2,2,2-trifluoroacetic acid salt], the IC50 at GPR6 receptor was found to be 2160 nM. In addition, in assay [1] (30 mpk ip), the “% reversal 30 min” value is listed as 48.1% and the “% reversal 120 min” value came to 41.4%.

Turning to `Clc1cccc(Cl)c1CN1CCN(c2nc3ccccc3nc2NC2CC2)CC1.O=C(O)C(F)(F)F` [Cpd 50, N-cyclopropyl-3-(4-(2,6-dichlorobenzyl)piperazin-1-yl)quinoxalin-2-amine, 2,2,2-trifluoroacetic acid salt], in assay [1] (30 mpk ip), the “% reversal 30 min” value was found to be 40.4% and the “% reversal 120 min” value is recorded as 29.6%.

With “3-(4-((5-chloro-2-fluorophenyl)fluoromethyl)piperidin-1-yl)-N-cyclopropylpyrido[3,4-b]pyrazin-2-amine [Cpd 452]”, the IC50 at GPR6 receptor came to 21 nM.

As to `Clc1cccc(CN2CCN(c3nc4ccccc4nc3Nc3ncccn3)CC2)c1` [Cpd 126, 3-(4-(3-chlorobenzyl)piperazin-1-yl)-N-(pyrimidin-2-yl)quinoxalin-2-amine, 2,2,2-trifluoroacetic acid salt], the IC50 on GPR6 receptor is 47000 nM.

Take `C[C@@H]1C[C@H]1Nc1nc2cnncc2nc1N1CCC([C@@H](F)c2ccc(F)cc2F)CC1` [Cpd 645, 3-(4-((R)-(2,4-difluorophenyl)fluoromethyl)piperidin-1-yl)-N-((1R,2R)-2-methylcyclopropyl)pyrazino[2,3-d]pyridazin-2-amine, 2,2,2-trifluoroacetic acid salt]: the IC50 at GPR6 receptor stood at 145 nM.
